# ChEMBL document CHEMBL1201862, “PubChem BioAssay data set” (2004)
#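 Test compounds were applied to cells in 96-well plates for 48 hours at 5 doses. GI50 = concentration required for 50% inhibition of growth.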 Active and inactive are the calls of the source. Cut-off read from the data, not from the text of the source: active = GI50 up to about 1.1 µM and inactive = higher.
# Columns and labels:
# Assay in all cases: inhibition of tumour cell growth, NCI panel, 48 h
# 786-0 = system: 786-0
# A498 = system: A498
# A549 = system: A549
# ACHN = system: ACHN
# CAKI-1 = system: CAKI-1
# CCRF-CEM = system: CCRF-CEM
# COLO 205 = system: COLO 205
# DU-145 = system: DU-145
# EKVX = system: EKVX
# HCC 2998 = system: HCC 2998
# HCT-116 = system: HCT-116
# HCT-15 = system: HCT-15
# HOP-62 = system: HOP-62
# HOP-92 = system: HOP-92
# HT-29 = system: HT-29
# Hs-578T = system: Hs-578T
# IGROV-1 = system: IGROV-1
# K562 = system: K562
# KM12 = system: KM12
# LOX IMVI = system: LOX IMVI
# M14 = system: M14
# MDA-MB-231 = system: MDA-MB-231
# MDA-MB-435 = system: MDA-MB-435
# MDA-N = system: MDA-N
# MOLT-4 = system: MOLT-4
# Malme-3M = system: Malme-3M
# NCI-H226 = system: NCI-H226
# NCI-H23 = system: NCI-H23
# NCI-H460 = system: NCI-H460
# NCI-H522 = system: NCI-H522
# NCI/ADR-RES = system: NCI/ADR-RES
# OVCAR-3 = system: OVCAR-3
# OVCAR-4 = system: OVCAR-4
# OVCAR-5 = system: OVCAR-5
# OVCAR-8 = system: OVCAR-8
# PC-3 = system: PC-3
# SF-268 = system: SF-268
# SF-295 = system: SF-295
# SF-539 = system: SF-539
# SK-MEL-28 = system: SK-MEL-28
# SK-MEL-2 = system: SK-MEL-2
# SK-MEL-5 = system: SK-MEL-5
# SK-OV-3 = system: SK-OV-3
# SN12C = system: SN12C
# SNB-19 = system: SNB-19
# SNB-75 = system: SNB-75
# SW-620 = system: SW-620
# T47D = system: T47D
# TK-10 = system: TK-10
# U-251 = system: U-251
# UACC-257 = system: UACC-257
# UACC-62 = system: UACC-62
# UO-31 = system: UO-31
# MCF7 = system: MCF7
# RPMI-8226 = system: RPMI-8226
# HL-60 = system: HL-60
smiles,measurement,setting,value
CCOC(=O)CNc1nc(=O)c2c(=O)oc(Cl)cc2o1,GI50,786-0,10.2 µM (inactive)
same,GI50,A498,17.5 µM (inactive)
same,GI50,A549,18.3 µM (inactive)
same,GI50,ACHN,13.5 µM (inactive)
same,GI50,CAKI-1,12.9 µM (inactive)
same,GI50,CCRF-CEM,5.82 µM (inactive)
same,GI50,COLO 205,16.7 µM (inactive)
same,GI50,DU-145,29 µM (inactive)
same,GI50,EKVX,16.1 µM (inactive)
same,GI50,HCC 2998,15.6 µM (inactive)
same,GI50,HCT-116,12.1 µM (inactive)
same,GI50,HCT-15,10 µM
same,GI50,HOP-62,25.4 µM (inactive)
same,GI50,HOP-92,3.69 µM (inactive)
same,GI50,HT-29,10.7 µM (inactive)
same,GI50,Hs-578T,19.3 µM (inactive)
same,GI50,IGROV-1,10.1 µM (inactive)
same,GI50,K562,6.25 µM (inactive)
same,GI50,KM12,22.1 µM (inactive)
same,GI50,LOX IMVI,10.5 µM (inactive)
same,GI50,M14,17.9 µM (inactive)
same,GI50,MDA-MB-231,21.6 µM (inactive)
same,GI50,MDA-MB-435,15.7 µM (inactive)
same,GI50,MDA-N,14.2 µM (inactive)
same,GI50,MOLT-4,12.6 µM (inactive)
same,GI50,Malme-3M,11.4 µM (inactive)
same,GI50,NCI-H226,> 100 µM (inactive)
same,GI50,NCI-H23,19.1 µM (inactive)
same,GI50,NCI-H460,16.6 µM (inactive)
same,GI50,NCI-H522,2.7 µM (inactive)
same,GI50,NCI/ADR-RES,21.4 µM (inactive)
same,GI50,OVCAR-3,12.9 µM (inactive)
same,GI50,OVCAR-4,17.6 µM (inactive)
same,GI50,OVCAR-5,18.5 µM (inactive)
same,GI50,OVCAR-8,11.2 µM (inactive)
same,GI50,PC-3,13.2 µM (inactive)
same,GI50,SF-268,14.7 µM (inactive)
same,GI50,SF-295,25 µM (inactive)
same,GI50,SF-539,6.79 µM (inactive)
same,GI50,SK-MEL-28,22.9 µM (inactive)
same,GI50,SK-MEL-2,17.2 µM (inactive)
same,GI50,SK-MEL-5,27.1 µM (inactive)
same,GI50,SK-OV-3,> 100 µM (inactive)
same,GI50,SN12C,18.4 µM (inactive)
same,GI50,SNB-19,33.3 µM (inactive)
same,GI50,SNB-75,11 µM (inactive)
same,GI50,SW-620,8.81 µM (inactive)
same,GI50,T47D,18.9 µM (inactive)
same,GI50,TK-10,13.6 µM (inactive)
same,GI50,U-251,24.8 µM (inactive)
same,GI50,UACC-257,17.5 µM (inactive)
same,GI50,UACC-62,18.2 µM (inactive)
same,GI50,UO-31,12.8 µM (inactive)
O=C1Cc2c([nH]c3ccc(Cl)cc23)-c2ccccc2N1,GI50,786-0,> 100 µM (inactive)
same,GI50,A498,> 100 µM (inactive)
same,GI50,A549,> 100 µM (inactive)
same,GI50,ACHN,> 100 µM (inactive)
same,GI50,COLO 205,> 100 µM (inactive)
same,GI50,HCT-116,3.17 µM (inactive)
same,GI50,HOP-92,> 100 µM (inactive)
same,GI50,Hs-578T,> 100 µM (inactive)
same,GI50,IGROV-1,> 100 µM (inactive)
same,GI50,LOX IMVI,2.13 µM (inactive)
same,GI50,M14,> 100 µM (inactive)
same,GI50,MCF7,> 100 µM (inactive)
same,GI50,MDA-MB-231,> 100 µM (inactive)
same,GI50,MDA-MB-435,> 100 µM (inactive)
same,GI50,MDA-N,> 100 µM (inactive)
same,GI50,Malme-3M,> 100 µM (inactive)
same,GI50,NCI-H226,> 100 µM (inactive)
same,GI50,NCI-H23,> 100 µM (inactive)
same,GI50,NCI-H460,> 100 µM (inactive)
same,GI50,NCI-H522,> 100 µM (inactive)
same,GI50,NCI/ADR-RES,> 100 µM (inactive)
same,GI50,OVCAR-4,> 100 µM (inactive)
same,GI50,OVCAR-8,> 100 µM (inactive)
same,GI50,RPMI-8226,> 100 µM (inactive)
same,GI50,SF-268,> 100 µM (inactive)
same,GI50,SF-295,> 100 µM (inactive)
same,GI50,SK-MEL-28,> 100 µM (inactive)
same,GI50,SK-MEL-5,> 100 µM (inactive)
same,GI50,SK-OV-3,> 100 µM (inactive)
same,GI50,SN12C,> 100 µM (inactive)
same,GI50,SNB-19,> 100 µM (inactive)
same,GI50,SNB-75,> 100 µM (inactive)
same,GI50,T47D,> 100 µM (inactive)
same,GI50,TK-10,> 100 µM (inactive)
same,GI50,U-251,> 100 µM (inactive)
same,GI50,UACC-62,74.6 µM (inactive)
same,GI50,UO-31,> 100 µM (inactive)
CN(C)CCSC1=Nc2ccc(Cl)cc2C(c2ccccc2Cl)=NC1,GI50,HL-60,19.3 µM (inactive)
same,GI50,Hs-578T,18.6 µM (inactive)
same,GI50,K562,20.5 µM (inactive)
same,GI50,MDA-MB-435,13.8 µM (inactive)
same,GI50,MOLT-4,33.3 µM (inactive)
same,GI50,SNB-75,18.2 µM (inactive)
O=C1C=CC2(C=C1)CCNC1=C2C(=O)c2[nH]cnc2C1=O,GI50,IGROV-1,15.2 µM (inactive)
same,GI50,Malme-3M,2.26 µM (inactive)
same,GI50,SNB-19,13.9 µM (inactive)
